The text below walks through data of US8222281B2, “Carboxylic acid compound” (Daiichi Sankyo Company, Limited, priority 2008, dated 2012).

The first experiment has as its system genetically obese impaired glucose tolerance rats (Crlj:ZUC-Lepr^fa/Lepr^fa rats). Briefly: Oral glucose tolerance test. The format is in vivo. The note with it: Rattus norvegicus, 0.5 h; dose 0.3 mg/kg oral; glucose 2 g/kg oral 30 minutes after compound; blood glucose 30 minutes after glucose loading; vs control group; read-out: Blood glucose lowering index (%). As to the method:
Oral Glucose Tolerance Test
Commercially available genetically obese impaired glucose tolerance rats (Crlj:ZUC-Lepr^fa/Lepr^fa rats, male, 11 weeks of age at the time of use, purchased from Charles River Laboratories Japan, Inc.)
(2) Experimental Method and Results
The rats were preliminarily reared for 2 weeks by feeding them laboratory chow (FR-2, Funabashi Farm Co., Ltd.) ad libitum. Then, the rats were fasted for 15 to 18 hours and used as test animals. A suspension was prepared such that the concentration of a test compound fell within a range from 0.075 to 0.25 mg/mL using a 0.5% solution of methyl cellulose (Wako Pure Chemical Industries, Ltd.). The test compound was orally administered by gavage to the rats (6 rats in each group) at a dose of 0.3 to 1 mg/kg. To the rats in the control group, a 0.5% solution of methyl cellulose was orally administered at a dose of 4 mL/kg. The oral glucose loading was performed such that a glucose solution (Otsuka Glucose Injection 50%, Otsuka Pharmaceutical Co., Ltd.) was orally administered at a dose of 2 g/kg after 30 minutes from administration of the test compound.
The blood was collected from the tail vein of each rat, and the blood glucose level was measured after 30 minutes from the oral glucose loading using a fully automatic blood glucose meter (Glucoroder GXT, A& T Corporation), and the blood glucose lowering index (%) was calculated from the following equation.
Blood glucose lowering index (%)=[1−(blood glucose level in test compound administration group)/(blood glucose level in control group)]×100
In the case of `CCO[C@@H](CC(=O)O)c1ccc(O[C@@H]2CCc3c2cc(F)cc3C(F)(F)F)cc1` [Example 61, (3S)-3-Ethoxy-3-(4-{[(1R)-6-fluoro-4-(trifluoromethyl)-2,3-dihydro-1H-inden-1-yl]oxy}phenyl)-propionic acid], the inhibition in vivo at 0.3 mg/kg worked out at 34%.
Regarding `CCO[C@@H](CC(=O)O)c1ccc(O[C@@H]2CCc3c(C)cc(C)cc32)cc1` [Example 62, (3S)-3-(4-{[(1R)-4,6-Dimethyl-2,3-dihydro-1H-inden-1-yl]oxy}phenyl)-3-ethoxypropionic acid], the inhibition in vivo at 0.3 mg/kg came out at 33%.
On to `CCO[C@@H](CC(=O)O)c1ccc(O[C@@H]2CCc3c2ccc(F)c3C(F)(F)F)cc1` [Example 56, (3S)-3-Ethoxy-3-(4-{[(1R)-5-fluoro-4-(trifluoromethyl)-2,3-dihydro-1H-inden-1-yl]oxy}phenyl)-propionic acid], for which the inhibition in vivo at 0.3 mg/kg is 40%.
The same measure, in the same setting: to `CCO[C@@H](CC(=O)O)c1ccc(O[C@@H]2CCc3c(C(F)F)cccc32)cc1` [Example 59, (3S)-3-(4-{[(1R)-4-(Difluoromethyl)-2,3-dihydro-1H-inden-1-yl]oxy}phenyl)-3-ethoxypropionic acid] belongs 32%; to `CCO[C@@H](CC(=O)O)c1ccc(O[C@@H]2CCc3c(C4CC4)cccc32)cc1` [Example 64, (3S)-3-(4-{[(1R)-4-Cyclopropyl-2,3-dihydro-1H-inden-1-yl]oxy}phenyl)-3-ethoxypropionic acid], 30%; to `CCO[C@@H](CC(=O)O)c1ccc(O[C@@H]2COc3c(OC(F)(F)F)cccc32)cc1` [Example 55, (3S)-3-Ethoxy-3-(4-{[(3S)-7-(trifluoromethoxy)-2,3-dihydro-1-benzofuran-3-yl]oxy}phenyl)propionic acid], 38%.

The same experiment, now with this note: Rattus norvegicus, 0.5 h; dose 1 mg/kg oral; glucose 2 g/kg oral 30 minutes after compound; blood glucose 30 minutes after glucose loading; vs control group; read-out: Blood glucose lowering index (%).
As for `CCO[C@@H](CC(=O)O)c1ccc(O[C@@H]2CCc3c(C)cccc32)cc1` [Example 58, (3S)-3-Ethoxy-3-(4-{[(1R)-4-methyl-2,3-dihydro-1H-inden-1-yl]oxy}phenyl)propionic acid], the inhibition in vivo at 1 mg/kg amounted to 35%.
The same measure, in the same setting: in the case of `CCO[C@@H](CC(=O)O)c1ccc(O[C@@H]2CCc3c(CC)cccc32)cc1` [Example 57, (3S)-3-Ethoxy-3-(4-{[(1R)-4-ethyl-2,3-dihydro-1H-inden-1-yl]oxy}phenyl)propionic acid] it was 50%; in that of `CCOC(CC(=O)O)c1ccc(OCc2ccc(C(F)(F)F)cc2)nc1` (centres unmarked) [Example 17, 3-Ethoxy-3-(6-{[4-(trifluoromethyl)benzyl]oxy}pyridin-3-yl)propionic acid], 38%; in that of `CCO[C@@H](CC(=O)O)c1ccc(OC2CCc3c2cccc3C(F)(F)F)cc1` (stereo partly drawn) [Example 53, (3S)-3-Ethoxy-3-(4-{[4-(trifluoromethyl)-2,3-dihydro-1H-inden-1-yl]oxy}phenyl)propionic acid], 41%.
The same measure, in the same setting: in the case of `CCO[C@@H](CC(=O)O)c1ccc(OCc2ccc(C(F)(F)F)cc2)nc1` [Example 18, (3S)-3-Ethoxy-3-(6-{[4-(trifluoromethyl)benzyl]oxy}pyridin-3-yl)propionic acid] it was 35%.
Still for that read-out and setting: to `CCOC(CC(=O)O)c1ccc(Oc2cc(Cl)ccc2Cl)cc1` (centres unmarked) [Example 25, 3-[4-(2,5-Dichlorophenoxy)phenyl]-3-ethoxypropionic acid] belongs 39%.
Turning to `CCOC(CC(=O)O)c1ccc(Oc2ccc(C#N)c3ccccc23)cc1` (centres unmarked) [Example 23, 3-{4-[(4-Cyano-1-naphthyl)oxy]phenyl}-3-ethoxypropionic acid], the inhibition in vivo at 1 mg/kg was determined as 16%.
Turning to `CCOC(CC(=O)O)c1ccc(Oc2cc(Cl)cc(Cl)c2)cc1` (centres unmarked) [Example 24, 3-[4-(3,5-Dichlorophenoxy)phenyl]-3-ethoxypropionic acid], the inhibition in vivo at 1 mg/kg amounted to 37%.
The same measure, in the same setting: to `CCOC(CC(=O)O)c1ccc(OCc2ccccc2C)cc1` (centres unmarked) [Example 20, 3-Ethoxy-3-{4-[(2-methylbenzyl)oxy]phenyl}propionic acid] belongs 15%; to `CCO[C@@H](CC(=O)O)c1ccc(O[C@@H]2CCc3c(Cl)cccc32)cc1` [Example 50, (3S)-3-(4-{[(1R)-4-Chloro-2,3-dihydro-1H-inden-1-yl]oxy}phenyl)-3-ethoxypropionic acid], 38%.
Same read-out and setting: to `CCO[C@@H](CC(=O)O)c1ccc(OCc2ccc(Cl)c(Cl)c2)cc1` [Example 16, (3S)-3-{4-[(3,4-Dichlorobenzyl)oxy]phenyl}-3-ethoxypropionic acid] belongs 39%.
Same read-out and setting: to `CCOC(CC(=O)O)c1ccc(OCc2ccc(Cl)c(Cl)c2)cc1` (centres unmarked) [Example 1, 3-{4-[(3,4-Dichlorobenzyl)oxy]phenyl}-3-ethoxypropionic acid] belongs 25%; to `CCO[C@@H](CC(=O)O)c1ccc(OCc2ccc(C(F)(F)F)cc2)cc1` [Example 49, (3S)-3-Ethoxy-3-(4-{[4-(trifluoromethyl)benzyl]oxy}phenyl)propionic acid], 37%.
In the case of `CCO[C@@H](CC(=O)O)c1ccc(O[C@@H]2COc3c2cccc3C(F)(F)F)cc1` [Example 60, (3S)-3-Ethoxy-3-(4-{[(3S)-7-(trifluoromethyl)-2,3-dihydro-1-benzofuran-3-yl]oxy}phenyl)propionic acid], the inhibition in vivo at 1 mg/kg is 48%.
In the case of `CCO[C@@H](CC(=O)O)c1ccc(O[C@H]2CCc3c(Cl)cccc32)cc1` [Example 52, (3S)-3-(4-{[(1S)-4-Chloro-2,3-dihydro-1H-inden-1-yl]oxy}phenyl)-3-ethoxypropionic acid], the inhibition in vivo at 1 mg/kg came out at 15%.
Still for that read-out and setting: in the case of `CCO[C@@H](CC(=O)O)c1ccc(O[C@@H]2CCc3c2cccc3C(F)(F)F)cc1` [Example 51, (3S)-3-Ethoxy-3-(4-{[(1R)-4-(trifluoromethyl)-2,3-dihydro-1H-inden-1-yl]oxy}phenyl)propionic acid] it was 42%; in that of `CCO[C@@H](CC(=O)O)c1ccc(O[C@@H]2CCc3c(OC(F)(F)F)cccc32)cc1` [Example 63, (3S)-3-Ethoxy-3-(4-{[(1R)-4-(trifluoromethoxy)-2,3-dihydro-1H-inden-1-yl]oxy}phenyl)propionic acid], 45%.
